SMILES strings stand for the structures.

With `COc1ccc(/C=C\c2cc(OC)cc(OC)c2N)cc1`, the melting point (as a rule, the temperature, or range, at which the solid turns liquid) fell in the range of 83.2 to 86.3 °C. Take `COc1ccc(/C=C\c2cc(OC)c(OC)cc2N)cc1`: the melting point is 62.7 to 63.8 °C. The value for `COc1ccc(/C=C\c2cc(OC)c(OC)c(OC)c2N)cc1N` was 97.3 to 98.1 °C.

Source of the values: patent publication US7560491B2, “Z-stilbenes derivatives and the pharmaceutical composition thereof” (Taipei Medical University, priority 2006, dated 2009).
